Data published in patent US8378085B2, “Bacterial ATP synthase binding domain” (priority 2004, dated 2013).
Values after ≈ are worked out from the molar mass of the structure shown. Values joined by “and” are separate entries in the source; they are usually repeats but may differ in a detail not shown here. Identical values can stand only once. Like-named read-outs stand apart in the source and are kept apart here.

Key:
[1] = system: wild type M. tuberculosis; assay type: cell-based, Mycobacterium tuberculosis
M. avium complex [2] = conditions: statement in discussion; cited from earlier work
Streptococcus pneumoniae = assay type: cell-based; conditions: Gram positive Streptococcus pneumoniae
Staphylococcus aureus = assay: microbe, parasite or virus in culture; assay type: cell-based; conditions: Staphylococcus aureus including methicillin-resistant strains
M. fortuitum = assay: microbe, parasite or virus in culture; assay type: cell-based, Mycobacterium fortuitum
M. abscessus = assay: microbe, parasite or virus in culture; assay type: cell-based, Mycobacterium abscessus; conditions: Mycobacteroides abscessus, read-out: MIC Median values
Haemophilus influenzae = assay type: cell-based; conditions: Gram negative Haemophilus influenzae
Escherichia coli = assay type: cell-based; conditions: Gram negative Escherichia coli
M. tuberculosis = assay: microbe, parasite or virus in culture; assay type: cell-based; conditions: Mycobacterium tuberculosis
[3] = system: M. tuberculosis in log-phase growth; assay type: cell-based, Mycobacterium tuberculosis
Enterococcus faecalis = assay type: cell-based; conditions: Gram positive Enterococcus faecalis
Nocardia = assay: microbe, parasite or virus in culture; assay type: cell-based
M. smegmatis = assay: MIC against M. smegmatis; assay type: cell-based, Mycobacterium smegmatis; conditions: Mycolicibacterium smegmatis, 7 strains, read-out: MIC Median values
Description: Table. 1 The minimum inhibitory concentrations (MICs) of the lead DARQ compound (J), that inhibited 90% of the growth of different mycobacterial species. the number of strains tested were n=1, unless otherwise indicated.

Helicobacter pylori = assay type: cell-based; conditions: Gram negative Helicobacter pylori
M. kansasii = assay: microbe, parasite or virus in culture; assay type: cell-based; conditions: Mycobacterium kansasii, read-out: MIC Median values
[4] = system: MDR-TB strains and fully drug-susceptible strains; assay type: cell-based, Mycobacterium tuberculosis
M. bovis = assay: microbe, parasite or virus in culture; assay type: cell-based; conditions: Mycobacterium tuberculosis variant bovis, read-out: MIC Median values
M. avium complex [5] = assay: microbe, parasite or virus in culture; assay type: cell-based; conditions: Mycobacterium avium, 7 strains, read-out: MIC Median values
M. marinum = assay: microbe, parasite or virus in culture; assay type: cell-based; conditions: Mycobacterium marinum, read-out: MIC Median values
Corynebacterium = assay: microbe, parasite or virus in culture; assay type: cell-based
[6] = system: M. smegmatis transformed with mutant atpE (D32V); assay type: cell-based; conditions: wild-type M. smegmatis transformed with plasmid containing mutant F0 fragment (D32V); MIC practically identical to resistant strain R09

NNC(=O)c1ccncc1 [isoniazid]
effect on ATP production (total cellular ATP) [1]: no effect
activity against MAC (M. avium complex [2]): no activity

COc1nc2ccc(Br)cc2cc1[C@@H](c1ccccc1)[C@@](O)(CCN(C)C)c1cccc2ccccc12 [J]
activity (Streptococcus pneumoniae): not active
MIC (Staphylococcus aureus): > 32 µg/mL
MIC Median values (M. fortuitum; M. fortuitum resistant to fluoroquinolone, 2 strains): 0.010 µg/mL (≈ 0.018 µM)
MIC (M. fortuitum; Mycolicibacterium fortuitum, M. fortuitum, 3 strains, read-out: MIC Median values): 0.01 µg/mL (≈ 0.018 µM)
MIC (M. abscessus): 0.25 µg/mL (≈ 0.45 µM)
effect on ATP production (total cellular ATP) [1]: dose dependent decrease in ATP production
activity (Haemophilus influenzae): not active
activity (Escherichia coli): not active
MIC (M. tuberculosis; H37RV, read-out: MIC Median values): 0.03 µg/mL (≈ 0.054 µM)
MIC (M. tuberculosis; read-out: median MIC): 0.06 µg/mL (≈ 0.108 µM)
reduction in bacterial counts [3]: 10^3 log
activity (Enterococcus faecalis): not active
MIC (Nocardia): > 4 µg/mL
MIC (M. smegmatis): 0.007 µg/mL (≈ 0.0126 µM)
activity (Helicobacter pylori): not active
MIC (M. kansasii): 0.003 µg/mL (≈ 0.0054 µM)
isolates of MDR-TB found susceptible [4]: 43% and 57%
strains with MIC below 0.010 μg/ml [4]: only one of 10
susceptibility of strains [4]: all strains were susceptible
MIC (M. bovis): 0.003 µg/mL (≈ 0.0054 µM)
MIC (M. avium complex [5]): 0.01 µg/mL (≈ 0.018 µM)
MIC (M. marinum): 0.003 µg/mL (≈ 0.0054 µM)
MIC (Corynebacterium): 4 µg/mL (≈ 7.2 µM)
susceptibility of transformed cells [6]: resistant
